Test results as given in patent US20020115704A1, “Treatment method” (priority 2000, published 2002).

Experiments:
[1] = system: 5-HT1A receptors or 5-HT1D receptors; conditions: cited from earlier work
female Macaca arctoides = test: Sexual behaviour of the male with the drug-treated female Macaca arctoides; type: in vivo; conditions: for Sexual desire and arousal in female primates: conclusion from the male's behaviour with the treated female; for Copulations with ejaculation (FIG. 1A) / Copulations without ejaculation (FIG. 1B) / Total number of copulations, with and without ejaculation pooled (FIG. 1C) / Number of short time mounts (FIG. 1D): i.m. to the female, n=4, vs saline; for Copulations with ejaculation (FIG. 1A) / Copulations without ejaculation (FIG. 1B): atipamezole 0.03 and 0.3 mg/kg, apomorphine 0.125 and 0.25 mg/kg, or combinations, 20 min observation; for Total number of copulations, with and without ejaculation pooled (FIG. 1C) / Number of short time mounts (FIG. 1D): same doses; for Total number of copulations, with and without ejaculation pooled (FIG. 1C): atipamezole F2,11=5.00, p=0.05; for Number of short time mounts (FIG. 1D): atipamezole F2,11=7.55, p<0.03
Protocol: This example investigated whether the administration a specific alpha2-adrenoceptor antagonist, atipamezole, a dopamine agonist, apomorphine, or their combination into a female Macaca arctoides produces changes in the sexual behaviour of the female with a male.
The experiments were performed using four female and two male Macaca arctoides monkeys born in captivity. The ages of the adult females were 13 and 16 years and those of the aged females 23 and 25 years. The ages of the males were 14 and 23 years. The females were sexually mature and with normal hormonal cycles.
During the testing period, the monkeys were housed individually in stainless-steel cages. They were fed commercially available food twice each day, and water was always available. Females were weighed before the first injection of each series and doses were adjusted accordingly when appropriate. Sexual behaviour was tested between 11.00 and 16.00 h. The same test cage and testing procedure were used in all experiments. One experienced observer, blind to the treatment, viewed the animals at a distance of about 0.5 m from the cage.
During the testing period, the couple being tested was housed in a single case (0.6×0.9×1.2 m) with two compartments. During the first 10 min of each session, a sliding wall made of steel bars separated the male and the female in the test cage. The monkeys could see and touch each other through this wall. Between the testing sessions, the female being tested was housed in another room with no visual contact with the male.
After i.m. administration of the studied compounds to the female, the observation of the sexual behaviour began as described subsequently. Ten minutes after the end of drug administration, the sliding wall between the male and the female was pulled away and the observation of sexual activity continued for the next 20 min. At the end of the observation period, the sliding wall was replaced and the female was taken to her home cage in another room.
The occurrence and duration of the following parameters were observed: perineal investigation, mounting, masturbation, ejaculation, male and female grooming, eye contact, tying, yawning, self-scratching, direct male aggression towards the female and teeth grinding. A single mount leading to ejaculation was counted as ejaculation. A single mount not leading to ejaculation was counted as a short term mount. If the interval between mounts was >30 s, the mount was considered to be separate. In Macaca arctoides, male ejaculation reached in copulation or masturbation can be recognised clearly on the basis of its stereotypic manifestations as described in Linnankoski et al. (Arch. Sexual Behav. 10:207-222, 1981).
The experiments were performed once every other day for three days/week. In each female, the effect of atipamezole (Orion Pharma, Turku, Finland) alone (0.03 and 0.3 mg/kg and saline control) was tested during the first two weeks. The effect of apomorphine (Sigma, St.Louis, Mo.) alone (0.125 and 0.25 mg/kg and saline control) was tested during the next two weeks. The combination of a low dose of atipamezole (0.03 mg/kg) with a low dose apomorphine (0.125 mg/kg), a high dose of atipamezole (0.3 mg/kg) with a high dose of apomorphine (0.25 mg/kg), or saline control (two saline injections) was studied during the last two weeks. Owing to the difference in their pharmacokinetic properties, atipamezole (or its saline control) was always administered 10 min before testing session and apomorphine (or its saline control) 20 min before the testing session. The order of testing various doses of drugs and saline control was randomised within each two week testing period. Each dose or the combination was tested twice and the average result of these two sessions was used in final calculations. The experiments were performed in a double-blind fashion.

[2] = system: ovariectomised, oestrogen+progesterone-primed female rats; conditions: cited from earlier work
males [3] = conditions: apomorphine: human males; cited from earlier work
α2-adrenoceptor = conditions: cited from earlier work
[4] = system: dopaminergic, GABAergic, serotonergic (such as 5-HT1A) receptors; conditions: cited from earlier work
males [5] = conditions: cited from earlier work
menopausal women = conditions: oral; cited from earlier work
postmenopausal women = conditions: cited from earlier work

COc1ccccc1N1CCN(CCN2C(=O)c3ccccc3C(C)(C)C2=O)CC1 [ARC 239]
Affinity on 5-HT1A receptors or 5-HT1D receptors [1]: have affinity

CC1c2ccccc2CN1CC1=NCCN1 (centres unmarked) [BRL 44408]
Affinity on 5-HT1A receptors or 5-HT1D receptors [1]: have affinity

c1ccc2c(c1)OCC(C1=NCCN1)O2 (centres unmarked) [Idazoxan]
Affinity on 5-HT1A receptors or 5-HT1D receptors [1]: have affinity

COC1(C2=NCCN2)COc2ccccc2O1 (centres unmarked) [RX821002, 2-methoxy idazoxan]
Affinity on 5-HT1A receptors or 5-HT1D receptors [1]: have affinity

CN1CCc2cccc3c2[C@H]1Cc1ccc(O)c(O)c1-3 [apomorphine]
Sexual desire and arousal in female primates (female Macaca arctoides): ineffective
Copulations with ejaculation (FIG. 1A) (female Macaca arctoides): failed to be statistically significant
Copulations without ejaculation (FIG. 1B) (female Macaca arctoides): failed to be statistically significant
Total number of copulations, with and without ejaculation pooled (FIG. 1C) (female Macaca arctoides): not significant
Number of short time mounts (FIG. 1D) (female Macaca arctoides): no significant effect
Sexual behaviour, lordosis response [2]: facilitate
Sexual arousal i.e. erections (males [3]): increased

CCC1(c2c[nH]cn2)Cc2ccccc2C1 [atipamezole, 4-(2-ethyl-2,3-dihydro-1H-inden-2-yl)-1H-imidazole]
Sexual desire and arousal in female primates (female Macaca arctoides): increases
Copulations with ejaculation (FIG. 1A) (female Macaca arctoides): failed to be statistically significant
Copulations without ejaculation (FIG. 1B) (female Macaca arctoides): failed to be statistically significant
Total number of copulations, with and without ejaculation pooled (FIG. 1C) (female Macaca arctoides): significant increase
Number of short time mounts (FIG. 1D) (female Macaca arctoides): dose-dependent increase
α2-/α1-adrenoceptor selectivity ratio (α2-adrenoceptor): high
Affinity for other neurotransmitter receptors (dopaminergic, GABAergic, serotonergic, benzodiazepine) [4]: negligible affinity
Sexual activity (ejaculations produced by copulation and/or masturbation) (males [5]): increase

COc1ccc2c(c1)CCN1C[C@H]3CCCN(S(C)(=O)=O)[C@H]3C[C@@H]21 [deleguamine, delequamine]
Sexual behaviour, lordosis response [2]: facilitate
Affinity on 5-HT1A receptors or 5-HT1D receptors [1]: have affinity

Cc1ccc(N(CC2=NCCN2)c2cccc(O)c2)cc1 [phentolamine]
Sexual arousal, such as self-reported lubrication (menopausal women): mild improvement
Sexual arousal i.e. erections (males [3]): increase

CCCc1nn(C)c2c(=O)[nH]c(-c3cc(S(=O)(=O)N4CCN(C)CC4)ccc3OCC)nc12 [sildenafil]
Sexual arousal i.e. erections (males [3]): increase
Sexual function (postmenopausal women): did not improve the sexual function significantly

COC(=O)[C@@H]1[C@H]2C[C@H]3c4[nH]c5ccccc5c4CCN3C[C@@H]2CC[C@@H]1O [yohimbine]
Affinity for other neurotransmitter receptors (dopaminergic, GABAergic, serotonergic, benzodiazepine) [4]: has affinity
